{"source": "patent US20090215036A1", "about": "“Genetic Alterations Useful For The Response Prediction of Malignant Neoplasia to Taxane-Based Medical Treatments” (Bayer HealthCare AG, priority 2004, published 2009)", "key": {"[1]": {"tested_on": "breast cancer patients", "test": "Kaplan-Meier disease free survival of the two therapy arms (E-T-CMF vs. E-CMF) in respect to gene amplifications", "experimental": "These samples were formalin-fixed and paraffin-embedded material from primary tumours. A detailed clinical report about all patients was available. The anonymized data included all medical, therapeutical, clinical, histo- and pathological, and follow-up information incl. relapse or survival time.\nMore than 60 genes were analyzed according to the method disclosed in examples 1 and 2 by quantitative PCR after nucleic acid extraction from formaldehyde-fixed, paraffin-embedded tissue slides. Alterations of the analyzed genes were determined by comparison with at least two reference genes. Reference genes included mainly MMP28 and HNRPDL, but also HBB, B2M, SOD2. […] The reference genes should be independent from the ARCHEON alterations occurring in the neoplastic lesions and should not be affected by chromosomal alterations such as amplifications and deletions. […] By measuring genes located on the X-chromosome (e.g. SRY), the Y-chromosome (e.g. Xist) and on chromosome 21, defined copy numbers of 1, 2 and 3 genes could be determined as internal control during each run for standardization. […] The calculated performance differences were used as a filter for the measurements within the target tissues, i.e. primer/probe differences of each individual gene as depicted in the control cells and tissues were subtracted from each individual gene measurement performed in the target tissue. […]"}, "[2]": {"tested_on": "breast cancer patients", "test": "Bivariate DNA and/or RNA marker combinations, +Taxol arm vs. -Taxol arm, quadrant analysis with Kaplan-Meier plots", "conditions": "GR3 + 4"}}}
{"molecule": "CC(=O)O[C@H]1C(=O)[C@@]2(C)[C@H]([C@H](OC(=O)c3ccccc3)[C@]3(O)C[C@H](OC(=O)[C@H](O)[C@@H](NC(=O)c4ccccc4)c4ccccc4)C(C)=C1C3(C)C)[C@]1(OC(C)=O)CO[C@@H]1C[C@@H]2O", "note": "[Taxol]", "values": [{"measurement": "outcome of Taxol therapy in patients with gene amplification", "setting": "[1]; FIGS. 2a-c, ErbB4 and VEGF amplified, alone or as a marker set of two genes", "value": "benefit from Taxol therapy"}, {"measurement": "correlation of gene amplification to Taxol resistance", "setting": "[1]; TRAG3 amplification", "value": "no strong correlation"}, {"measurement": "Benefit", "setting": "[2]; ABCG2_R thr 11.0 / SIVA_D thr 1.3, Quadrant LH", "value": "OUT: Always beneficial"}, {"measurement": "Benefit", "setting": "[2]; AFP_R thr −2.2 / EMS1_R thr 18.9, Quadrant HL", "value": "OUT: Taxol beneficial"}, {"measurement": "Benefit", "setting": "[2]; AFP_R thr −2.2 / FLT1_D thr 3.3, Quadrant HL", "value": "OUT: Taxol beneficial"}, {"measurement": "Benefit", "setting": "[2]; AFP_R thr −2.2 / TRAG3_D thr 1.2, Quadrant HH", "value": "OUT: Taxol beneficial"}, {"measurement": "Benefit", "setting": "[2]; AFP_R thr −2.2 / TWIST1_D thr 1.1, Quadrant HH", "value": "OUT: Taxol beneficial"}, {"measurement": "Benefit", "setting": "[2]; AFP_R thr −2.5 / ISGF3G_D thr 3.7, Quadrant HL", "value": "OUT: Taxol beneficial"}, {"measurement": "Benefit", "setting": "[2]; BUB3_D thr 2.0 / MST1_D thr 2.1, Quadrant HH", "value": "OUT: Always beneficial"}, {"measurement": "Benefit", "setting": "[2]; CCNE2_R thr 13.4 / MST1_D thr 2.0, Quadrant LL", "value": "IN: Always beneficial"}, {"measurement": "Benefit", "setting": "[2]; CIDEB_R thr 13.7 / ERBB3_R thr 14.7, Quadrant LH", "value": "IN: Taxol beneficial"}, {"measurement": "Benefit", "setting": "[2]; CIDEB_R thr 13.7 / RIN1_D thr 2.1, Quadrant LL", "value": "IN: Taxol beneficial"}, {"measurement": "Benefit", "setting": "[2]; EMS1_R thr 15.9 / RIN1_D thr 2.1, Quadrant HL", "value": "IN: Taxol beneficial"}, {"measurement": "Benefit", "setting": "[2]; EMS1_R thr 16.9 / ERBB3_R thr 14.7, Quadrant HH", "value": "IN: Taxol beneficial"}, {"measurement": "Benefit", "setting": "[2]; ERBB3_R thr 14.7 / BRMS1_D thr 4.6, Quadrant HL", "value": "IN: Taxol beneficial"}, {"measurement": "Benefit", "setting": "[2]; ERBB3_R thr 14.7 / MUC1_D thr 2.6, Quadrant HL", "value": "IN: Taxol beneficial"}, {"measurement": "Benefit", "setting": "[2]; ERBB3_R thr 14.7 / VEGF_D thr 3.9, Quadrant HL", "value": "IN: Taxol beneficial"}, {"measurement": "Benefit", "setting": "[2]; ESR1_R thr 12.3 / CA9_R thr 1.4, Quadrant HH", "value": "OUT: Taxol beneficial"}, {"measurement": "Benefit", "setting": "[2]; FNTA_R thr 11.9 / ERBB2_D thr 1.8, Quadrant HH", "value": "OUT: Always beneficial"}, {"measurement": "Benefit", "setting": "[2]; FolR2_D thr 2.9 / VEGF_D thr 2.6, Quadrant HL", "value": "IN: Taxol beneficial"}, {"measurement": "Benefit", "setting": "[2]; GSTP1_D thr 2.2 / ING1L_D thr 1.6, Quadrant LH", "value": "OUT: Always beneficial"}, {"measurement": "Benefit", "setting": "[2]; GSTP1_D thr 2.4 / MST1_D thr 2.1, Quadrant LH", "value": "OUT: Always beneficial"}, {"measurement": "Benefit", "setting": "[2]; KISS I_D thr 1.3 / ERBB2_D thr 1.8, Quadrant HH", "value": "OUT: Always beneficial"}, {"measurement": "Benefit", "setting": "[2]; MYC2_D thr 2.1 / ERBB3_R thr 14.4, Quadrant HH", "value": "IN: Taxol beneficial"}, {"measurement": "Benefit", "setting": "[2]; MYC2_D thr 2.2 / CASP10_D thr 2.2, Quadrant HL", "value": "IN: Taxol beneficial"}, {"measurement": "Benefit", "setting": "[2]; PGR_R thr 9.1 / RIN1_D thr 2.1, Quadrant HL", "value": "IN: Taxol beneficial"}, {"measurement": "Benefit", "setting": "[2]; PGR_R thr 14.3 / ERBB3_R thr 14.7, Quadrant LH", "value": "IN: Taxol beneficial"}, {"measurement": "Benefit", "setting": "[2]; PVT1_D thr 1.3 / RIN1_D thr 2.1, Quadrant HL", "value": "IN: Taxol beneficial"}, {"measurement": "Benefit", "setting": "[2]; RAD54B_D thr 1.2 / ERBB2_D thr 1.8, Quadrant HH", "value": "OUT: Always beneficial"}, {"measurement": "Benefit", "setting": "[2]; RIN1_D thr 2.1 / EMS1_D thr 1.2, Quadrant LH", "value": "IN: Taxol beneficial"}, {"measurement": "Benefit", "setting": "[2]; RIN1_D thr 2.1 / VEGF_D thr 1.5, Quadrant LH", "value": "IN: Taxol beneficial"}, {"measurement": "Benefit", "setting": "[2]; STAU_R thr 17.6 / FLT1_R thr 3.5, Quadrant LL", "value": "OUT: Taxol beneficial"}, {"measurement": "Benefit", "setting": "[2]; TONDO_R thr 12.2 / ErbB4_D thr 2.2, Quadrant LH", "value": "IN: Taxol beneficial"}, {"measurement": "Benefit", "setting": "[2]; VEGFa_R thr 13.0 / BOP1_D thr 2.0, Quadrant HH", "value": "OUT: Always beneficial"}, {"measurement": "Benefit", "setting": "[2]; VEGFa_R thr 14.1 / AFP_R thr −1.0, Quadrant LH", "value": "IN: Always beneficial"}]}
